System: naive Sprague Dawley rat hearts
Conditions: ex vivo isolated perfused rat heart, percent change over vehicle; for Isolated Heart Assay dP/dtmax(%): contractility; for Isolated Heart Assay dP/dtmin(%): relaxation (lusitropic)

SMILES | Isolated Heart Assay dP/dtmax(%) | Isolated Heart Assay dP/dtmin(%)
COc1cccc(-c2nnc(NS(=O)(=O)[C@@H](C)[C@H](OC)c3ncc(C)cn3)n2-c2cccnc2OC)n1 (atropisomer, axis not shown) [Example 741.0, (1R,2S, P)-1-methoxy-N-(4-(2-methoxy-3-pyridinyl)-5-(6-methoxy-2-pyridinyl)-4H-1,2,4-triazol-3-yl)-1-(5-methyl-2-pyrimidinyl)-2-propanesulfonamide and (1R,2S, M)-1-methoxy-N-(4-(2-methoxy-3-pyridinyl)-5-(6-methoxy-2-pyridinyl)-4H-1,2,4-triazol-3-yl)-1-(5-methyl-2-pyrimidinyl)-2-propanesulfonamide] | 1.4% | 6.6%
COc1cccc(OC)c1-n1c(NS(=O)(=O)[C@@H](C)[C@H](C)c2ncc(F)cn2)nnc1-c1cccnc1 (racemic) [Example 184.0, (2R,3S)-N-(4-(2,6-dimethoxyphenyl)-5-(3-pyridinyl)-4H-1,2,4-triazol-3-yl)-3-(5-fluoro-2-pyrimidinyl)-2-butanesulfonamide or (2S,3R)-N-(4-(2,6-dimethoxyphenyl)-5-(3-pyridinyl)-4H-1,2,4-triazol-3-yl)-3-(5-fluoro-2-pyrimidinyl)-2-butanesulfonamide] | 14.5% | 14.0%
COc1cccc(OC)c1-n1c(NS(=O)(=O)[C@H](C)[C@@H](OC)c2ccc(Cl)cn2)nnc1-c1cccnc1 (single isomer, unassigned) [Example 531.0, (1S,2R)-1-(5-chloro-2-pyridinyl)-N-(4-(2,6-dimethoxyphenyl)-5-(3-pyridinyl)-4H-1,2,4-triazol-3-yl)-1-methoxy-2-propanesulfonamide or (1R,2S)-1-(5-chloro-2-pyridinyl)-N-(4-(2,6-dimethoxyphenyl)-5-(3-pyridinyl)-4H-1,2,4-triazol-3-yl)-1-methoxy-2-propanesulfonamide] | 4.1% | 1.9%
COc1cccc(OC)c1-n1c(NS(=O)(=O)[C@H](C)[C@@H](O)c2cnc(C)cn2)nnc1-c1cncc(C)c1 (single isomer, unassigned) [Example 569.0, (1S,2R)-N-(4-(2,6-dimethoxyphenyl)-5-(5-methyl-3-pyridinyl)-4H-1,2,4-triazol-3-yl)-1-hydroxy-1-(5-methyl-2-pyrazinyl)-2-propanesulfonamide or (1R,2S)-N-(4-(2,6-dimethoxyphenyl)-5-(5-methyl-3-pyridinyl)-4H-1,2,4-triazol-3-yl)-1-hydroxy-1-(5-methyl-2-pyrazinyl)-2-propanesulfonamide] | 12.4% | 12.7%
COc1cccc(OC)c1-n1c(NS(=O)(=O)[C@H](C)[C@@H](OC)c2cnc(C)cn2)nnc1-c1cncc(C)c1 (single isomer, unassigned) [Example 571.0, (1S,2R)-N-(4-(2,6-dimethoxyphenyl)-5-(5-methyl-3-pyridinyl)-4H-1,2,4-triazol-3-yl)-1-methoxy-1-(5-methyl-2-pyrazinyl)-2-propanesulfonamide or (1R,2S)-N-(4-(2,6-dimethoxyphenyl)-5-(5-methyl-3-pyridinyl)-4H-1,2,4-triazol-3-yl)-1-methoxy-1-(5-methyl-2-pyrazinyl)-2-propanesulfonamide] | 13.3% | 18.8%
COc1cnc([C@H](O)[C@@H](C)S(=O)(=O)Nc2nnc(-c3cccnc3)n2-c2c(OC)cccc2OC)cn1 (single isomer, unassigned) [Example 706.0, (1S,2R)-N-(4-(2,6-dimethoxyphenyl)-5-(3-pyridinyl)-4H-1,2,4-triazol-3-yl)-1-hydroxy-1-(5-methoxy-2-pyrazinyl)-2-propanesulfonamide or (1R,2S)-N-(4-(2,6-dimethoxyphenyl)-5-(3-pyridinyl)-4H-1,2,4-triazol-3-yl)-1-hydroxy-1-(5-methoxy-2-pyrazinyl)-2-propanesulfonamide] | 9.1% | 4.0%
COc1ncnc(OC)c1-n1c(NS(=O)(=O)[C@@H](C)[C@H](OC)c2ccc(Cl)cn2)nnc1-c1cccnc1 (single isomer, unassigned) [Example 711.0, (1R,2S)-1-(5-chloro-2-pyridinyl)-N-(4-(4,6-dimethoxy-5-pyrimidinyl)-5-(3-pyridinyl)-4H-1,2,4-triazol-3-yl)-1-methoxy-2-propanesulfonamide or (1S,2R)-1-(5-chloro-2-pyridinyl)-N-(4-(4,6-dimethoxy-5-pyrimidinyl)-5-(3-pyridinyl)-4H-1,2,4-triazol-3-yl)-1-methoxy-2-propanesulfonamide] | 9.4% | 1.1%
Cc1cnc([C@@H](C)[C@H](C)S(=O)(=O)Nc2nnc(-c3cncc(C)c3)n2-c2c(F)cccc2F)nc1 (single isomer, unassigned) [Example 826.0, (2S,3R)-N-(4-(2,6-difluorophenyl)-5-(5-methylpyridin-3-yl)-4H-1,2,4-triazol-3-yl)-3-(5-methylpyrimidin-2-yl)butane-2-sulfonamide or (2R,3S)-N-(4-(2,6-difluorophenyl)-5-(5-methylpyridin-3-yl)-4H-1,2,4-triazol-3-yl)-3-(5-methylpyrimidin-2-yl)butane-2-sulfonamide] | 6.02% | 5.16%
COc1cccc(OC)c1-n1c(NS(=O)(=O)[C@@H](C)[C@@H](OC(C)C)c2ncc(C)cn2)nnc1-c1cccnc1 (stereo in doubt) [Example 627.0, (1R,2R)-N-(4-(2,6-dimethoxyphenyl)-5-(3-pyridinyl)-4H-1,2,4-triazol-3-yl)-1-(1-methylethoxy)-1-(5-methyl-2-pyrimidinyl)-2-propanesulfonamide, (1S,2S)-N-(4-(2,6-dimethoxyphenyl)-5-(3-pyridinyl)-4H-1,2,4-triazol-3-yl)-1-(1-methylethoxy)-1-(5-methyl-2-pyrimidinyl)-2-propanesulfonamide] | No effect | No effect
CCO[C@H](c1ncc(F)cn1)[C@H](C)S(=O)(=O)Nc1nnc(-c2cccnc2)n1-c1c(OC)cccc1OC [Example 51.0, (1R,2S)-N-(4-(2,6-dimethoxyphenyl)-5-(3-pyidinyl)-4H-1,2,4-triazol-3-yl)-1-ethoxy-1-(5-fluoro-2-pyrimidinyl)-2-propanesulfonamide] | 2.0% | 2.0%
CCO[C@H](c1ncc(F)cn1)[C@H](C)S(=O)(=O)Nc1nnc(-c2cncc(C)c2)n1-c1c(OC)cccc1OC [Example 79.0, (1R,2S)-N-(4-(2,6-dimethoxyphenyl)-5-(5-methyl-3-pyridinyl)-4H-1,2,4-triazol-3-yl)-1-ethoxy-1-(5-fluoro-2-pyrimidinyl)-2-propanesulfonamide] | 10.0% | 5.0%
COc1cccc(OC)c1-n1c(NS(=O)(=O)[C@@H](C)[C@H](OC)c2ncc(F)cn2)nnc1-c1cncc(C)c1 [Example 80.0, (1R,2S)-N-(4-(2,6-dimethoxyphenyl)-5-(5-methyl-3-pyridinyl)-4H-1,2,4-triazol-3-yl)-1-(5-fluoro-2-pyrimidinyl)-1-methoxy-2-propanesulfonamide] | 5.0% | −2.7%
COc1cccc(OC)c1-n1c(NS(=O)(=O)[C@@H](C)[C@H](OC)c2ncc(F)cn2)nnc1-c1cccnc1 [Example 81.0, (1R,2S)-N-(4-(2,6-dimethoxyphenyl)-5-(3-pyridinyl)-4H-1,2,4-triazol-3-yl)-1-(5-fluoro-2-pyrimidinyl)-1-methoxy-2-propanesulfonamide] | 14.0% | 15.0%
COc1cccc(OC)c1-n1c(NS(=O)(=O)[C@@H](C)[C@H](O)c2ncc(F)cn2)nnc1-c1cccnc1 [Example 82.0, (1R,2S)-N-(4-(2,6-dimethoxyphenyl)-5-(3-pyridinyl)-4H-1,2,4-triazol-3-yl)-1-(5-fluoro-2-pyrimidinyl)-1-hydroxy-2-propanesulfonamide] | 13.5% | 16.2%
CCO[C@H](c1ncc(C)cn1)[C@H](C)S(=O)(=O)Nc1nnc(-c2cncc(C)c2)n1-c1c(OC)cccc1OC [Example 252.0, (1R,2S)-N-(4-(2,6-dimethoxyphenyl)-5-(5-methylpyridin-3-yl)-4H-1,2,4-triazol-3-yl)-1-ethoxy-1-(5-methylpyrimidin-2-yl)propane-2-sulfonamide] | 15.7% | 16.3%
CCO[C@H](c1ncc(Cl)cn1)[C@H](C)S(=O)(=O)Nc1nnc(-c2cccnc2)n1-c1c(OC)cccc1OC [Example 430.0, (1R,2S)-1-(5-chloropyrimidin-2-yl)-N-(4-(2,6-dimethoxyphenyl)-5-(pyridin-3-yl)-4H-1,2,4-triazol-3-yl)-1-ethoxypropane-2-sulfonamide] | 10.0% | 9.7%
COc1cccc(OC)c1-n1c(NS(=O)(=O)[C@@H](C)[C@H](OC)c2ncc(Cl)cn2)nnc1-c1cccnc1 [Example 591.0, (1R,2S)-1-(5-chloro-2-pyrimidinyl)-N-(4-(2,6-dimethoxyphenyl)-5-(3-pyridinyl)-4H-1,2,4-triazol-3-yl)-1-methoxy-2-propanesulfonamide] | 8.0% | 0.0%
CCO[C@H](c1ncc(Cl)cn1)[C@H](C)S(=O)(=O)Nc1nnc(-c2cncc(C)c2)n1-c1c(OC)cccc1OC [Example 610.0, (1R,2S)-1-(5-chloro-2-pyrimidinyl)-N-(4-(2,6-dimethoxyphenyl)-5-(5-methyl-3-pyridinyl)-4H-1,2,4-triazol-3-yl)-1-ethoxy-2-propanesulfonamide] | 6.0% | No effect
COc1cccc(OC)c1-n1c(NS(=O)(=O)[C@H](C)[C@@H](O)c2cnc(C)cn2)nnc1-c1cccnc1 [Example 614.0, (1S,2R)-N-(4-(2,6-dimethoxyphenyl)-5-(3-pyridinyl)-4H-1,2,4-triazol-3-yl)-1-hydroxy-1-(5-methyl-2-pyrazinyl)-2-propanesulfonamide] | 6.6% | 6.2%
